Reference: US8895585B2, “Nicotinamide derivative or salt thereof” (FUJIFILM Corporation, priority 2010, dated 2014)

Each molecule was assayed on THP-1 cells (assay: TNFα generation assay). Conditions: Homo sapiens, THP-1, 7 h, IFN-γ-differentiated THP-1 cells on human IgG-coated plate, cultured 7 hours; read-out: TNFα generation inhibitory activity (IC50).
Format: cell-based, human
Description: THP-1 cells (2×10^5 cells/ml), which were human monocytoid cells, were cultured in the presence of 10 ng/ml IFN-γ (Roche) for 2 days, so that the cells were induced to differentiate into macrophage-like cells. The differentiation-induced THP-1 cells were recovered, and the cells (1×10^6 cell/ml) were then allowed to react with a predetermined concentration of test compound at room temperature for 30 minutes. On the other hand, 100 μl of human IgG (10 μg/ml, SIGMA-ALDRICH) diluted with PBS was added to a 96-well plate, and it was then incubated at room temperature overnight. Thereafter, the resultant was washed with PBS twice to produce a human IgG-coated plate. Subsequently, a cell solution that contained a compound was inoculated on the human IgG-coated plate (5×10^4 cells/well), and it was then cultured for 7 hours. Thereafter, the cultured solution was recovered, and the amount of TNFα secreted into the culture solution was then measured by the ELISA method (Roche/R & D Systems) or the AlphaLISA method (PerkinElmer).

| SMILES | IC50 |
| --- | --- |
| Cc1ccc2cc(Nc3nc(N[C@@H]4CCCC[C@@H]4N)c(F)cc3C(N)=O)ccc2n1 (relative stereo) [Example 6-70, 6-(cis-2-aminocyclohexylamino)-5-fluoro-2-((2-methylquinolin-6-yl)amino)nicotinamide] | ≤ 200 nM |
| CCN(CC)CCn1ccc2c(Nc3nc(N[C@@H]4CCCC[C@@H]4N)c(F)cc3C(N)=O)ccnc21 (relative stereo) [Example 4-28, 6-(cis-2-aminocyclohexylamino)-2-((1-(2-(diethylamino)ethyl)-1H-pyrrolo[2,3-b]pyridin-4-yl)amino)-5-fluoronicotinamide] | ≤ 200 nM |
| COc1cc(Nc2nc(N[C@@H]3CCCC[C@@H]3N)c(F)cc2C(N)=O)cc(OC)c1 [Example 22-5, 6-((1R,2S)-2-aminocyclohexylamino)-2-(3,5-dimethoxyphenylamino)-5-fluoronicotinamide] | ≤ 200 nM |
| COC[C@H](N)CNc1nc(Nc2ccc3ncccc3c2)c(C(N)=O)cc1F [Example 14-6, 6-(((2R)-2-amino-3-methoxypropyl)amino)-5-fluoro-2-(quinolin-6-ylamino)nicotinamide] | ≤ 200 nM |
| NC(=O)c1cc(F)c(N[C@@H]2CCCC[C@@H]2N)nc1Nc1ccc2c(cnn2CCN2CCCC2)c1 (relative stereo) [Example 6-82, 6-(cis-2-aminocyclohexylamino)-5-fluoro-2-((1-(2-(pyrrolidin-1-yl)ethyl)-1H-indazol-5-yl)amino)nicotinamide] | ≤ 200 nM |
| NC(=O)c1cc(F)c(N[C@@H]2CCCC[C@@H]2N)nc1Nc1ccc2nn(CCN3CCCC3)cc2c1 (relative stereo) [Example 6-83, 6-(cis-2-aminocyclohexylamino)-5-fluoro-2-((2-(2-(pyrrolidin-1-yl)ethyl)-2H-indazol-5-yl)amino)nicotinamide] | ≤ 200 nM |
| NC(=O)c1cc(F)c(N[C@@H]2CCCC[C@@H]2N)nc1Nc1ccc2[nH]ncc2c1 (relative stereo) [Example 6-87, 6-(cis-2-aminocyclohexylamino)-5-fluoro-2-((1H-indazol-5-yl)amino)nicotinamide] | ≤ 200 nM |
| NC(=O)c1cc(F)c(N[C@@H]2CCCC[C@@H]2N)nc1Nc1cccc(Cl)c1 (relative stereo) [Example 8-8, 6-(cis-2-aminocyclohexylamino)-2-((3-chlorophenyl)amino)-5-fluoro-nicotinamide] | ≤ 200 nM |
| NC(=O)c1cc(F)c(N[C@@H]2CCCC[C@@H]2N)nc1Nc1ccnc2c1ccn2CC1CC1 (relative stereo) [Example 4-40, 6-(cis-2-aminocyclohexylamino)-2-((1-(cyclopropylmethyl)-1H-pyrrolo[2,3-b]pyridin-4-yl)amino)-5-fluoronicotinamide] | ≤ 200 nM |
| NC(=O)c1cc(F)c(N[C@@H]2CCCC[C@@H]2N)nc1Nc1cnc2ncsc2c1 (relative stereo) [Example 4-26, 6-(cis-2-aminocyclohexylamino)-5-fluoro-2-(([1,3]thiazolo[4,5-b]pyridin-6-yl)amino)nicotinamide] | ≤ 200 nM |
| NCCNc1nc(Nc2ccc3ncsc3c2)c(C(N)=O)cc1F [Example 6-44, 6-(2-aminoethylamino)-2-((benzo[d]thiazol-6-yl)amino)-5-fluoro-nicotinamide] | ≤ 200 nM |
| NC(=O)Nc1cccc2cc(Nc3nc(N[C@@H]4CCCC[C@@H]4N)c(F)cc3C(N)=O)cnc12 (relative stereo) [Example 4-64, 2-((8-(aminocarbonyl)amino-quinolin-3-yl)amino)-6-(cis-2-amino-cyclohexylamino)-5-fluoronicotinamide] | ≤ 200 nM |
| CC(C)C[C@H](N)CNc1nc(Nc2ccc3ncccc3c2)c(C(N)=O)cc1F [Example 14-10, 6-(((2S)-2-amino-4-methylpentyl)amino)-5-fluoro-2-(quinolin-6-ylamino)nicotinamide] | ≤ 200 nM |
| Cc1nc2ccc(Nc3nc(N[C@@H]4CCCC[C@@H]4N)c(F)cc3C(N)=O)cc2o1 (relative stereo) [Example 6-43, 6-(cis-2-aminocyclohexylamino)-5-fluoro-2-((2-methylbenzo[d]oxazol-6-yl)amino)nicotinamide] | ≤ 200 nM |
| NC(=O)c1cc(F)c(NC[C@@H](N)c2ccccc2)nc1Nc1ccc2ncccc2c1 [Example 14-5, 6-(((2S)-2-amino-2-phenylethyl)amino)-5-fluoro-2-(quinolin-6-ylamino)nicotinamide] | ≤ 200 nM |
| NC(=O)c1cc(F)c(N[C@@H]2CCCC[C@@H]2N)nc1Nc1ccc2ncsc2c1 (relative stereo) [Example 6-35, 6-(cis-2-aminocyclohexylamino)-2-((benzo[d]thiazol-6-yl)amino)-5-fluoronicotinamide] | ≤ 200 nM |
| NC(=O)c1cc(F)c(N[C@@H]2CCCC[C@@H]2N)nc1Nc1ccnc2c1ccn2CCN1CCOCC1 (relative stereo) [Example 4-25, 6-(cis-2-aminocyclohexylamino)-5-fluoro-2-((1-(2-(morpholin-4-yl)ethyl)-1H-pyrrolo[2,3-b]pyridin-4-yl)amino)nicotinamide] | ≤ 200 nM |
| NC(=O)c1cc(F)c(N[C@@H]2CCCC[C@@H]2N)nc1Nc1ccc2ncccc2c1 (relative stereo) [Example 8-6, 6-(cis-2-aminocyclohexylamino)-5-fluoro-2-(quinolin-6-ylamino)-nicotinamide] | ≤ 200 nM |
| Cn1ncc2ccc(Nc3nc(N[C@@H]4CCCC[C@@H]4N)c(F)cc3C(N)=O)cc21 (relative stereo) [Example 6-40, 6-(cis-2-aminocyclohexylamino)-5-fluoro-2-((1-methyl-1H-indazol-6-yl)amino)nicotinamide] | ≤ 200 nM |
| Cc1cnc2cc(Nc3nc(N[C@@H]4CCCC[C@@H]4N)c(F)cc3C(N)=O)ccc2n1 (relative stereo) [Example 6-76, 6-(cis-2-aminocyclohexylamino)-5-fluoro-2-((2-methylquinoxalin-6-yl)amino)nicotinamide] | ≤ 200 nM |
| Cn1cnc2cc(Nc3nc(N[C@@H]4CCCC[C@@H]4N)c(F)cc3C(N)=O)ccc21 (relative stereo) [Example 6-65, 6-(cis-2-aminocyclohexylamino)-5-fluoro-2-((1-methyl-1H-benzo[d]imidazol-5-yl)amino)nicotinamide] | ≤ 200 nM |

Same assay, conditions: Homo sapiens, THP-1, 7 h, read-out: TNFα generation inhibitory activity (IC50)

| SMILES | IC50 |
| --- | --- |
| NCCNc1nc(Nc2cnc3ccccc3c2)c(C(N)=O)cc1F [Example 8-11, 6-(2-aminoethylamino)-5-fluoro-2-(quinolin-3-ylamino)nicotinamide] | ≤ 200 nM |

Same assay, conditions: Homo sapiens, THP-1, THP-1 cells; Table 22; read-out: IC50 in TNFα generation assay

| SMILES | IC50 |
| --- | --- |
| CC(C)C[C@H](CN)Nc1nc(Nc2ccc3ncccc3c2)c(C(N)=O)cc1F [Example 006-117, (R)-6-((1-amino-4-methylpentan-2-yl)amino)-5-fluoro-2-((quinolin-6-yl)amino)nicotinamide] | < 65 nM |
| NC(=O)c1cc(F)c(N[C@@H]2CCCC[C@@H]2N)nc1Nc1ccnc2c1ccn2CCN1CCCC1 [Example 004-023] | 65 to 130 nM |

The molecules below were run against T1, glutathione S-transferase (GST)-fused full-length human Syk protein (Homo sapiens, UniProt P43405) (assay: Syk enzyme assay). Conditions: Syk enzyme assay, Test Example 1; read-out: IC50 of Syk-inhibitory activity.
T1 construct: (GST)-fused full-length human Syk protein; GST (glutathione S-transferase); purchased Carna Biosciences
Format: biochemical
Method in brief: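 GST-tagged full-length human Syk (baculovirus) preincubated with compound 15 min at room temperature (pH 7.0, 10 mM MgCl2), then reacted 40 min with 0.4 μM biotinylated peptide substrate and 27 μM ATP (final). Phosphorylation read by HTRF (615/665 nm) after EDTA stop; IC50 reported.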

| SMILES | IC50 |
| --- | --- |
| COCCOc1ncc(Nc2nc(N[C@@H]3CCCC[C@@H]3N)c(F)cc2C(N)=O)cc1C1CC1 [Example 006-574, 6-(((1R,2S)-2-aminocyclohexyl)amino)-2-((5-cyclopropyl-6-(2-methoxyethoxy)pyridin-3-yl)amino)-5-fluoronicotinamide] | 10 to 50 nM |
| CCOc1ccccc1-c1cncc(Nc2nc(N[C@@H]3CCCC[C@@H]3N)c(F)cc2C(N)=O)c1 (relative stereo) [Example 004-182, 6-(cis-2-aminocyclohexylamino)-2-((5-(2-ethoxyphenyl)pyridin-3-yl)amino)-5-fluoronicotinamide] | < 10 nM |
| NC(=O)c1cc(F)c(N[C@@H]2CCCC[C@@H]2N)nc1Nc1cnc2c(O)cccc2c1 (relative stereo) [Example 004-124, 6-(cis-2-aminocyclohexylamino)-5-fluoro-2-((8-hydroxyquinolin-3-yl)amino)nicotinamide] | < 10 nM |
| NC(=O)c1cc(F)c(N[C@@H]2CCCC[C@@H]2N)nc1Nc1cncc(-c2cccc(F)c2F)c1 (relative stereo) [Example 004-204, 6-(cis-2-aminocyclohexylamino)-2-((5-(2,3-difluorophenyl)pyridin-3-yl)amino)-5-fluoronicotinamide] | < 10 nM |

Same assay, conditions: read-out: Syk-inhibitory activity (IC50)

| SMILES | IC50 |
| --- | --- |
| NCCNc1nc(Nc2cccc(C(=O)Nc3ccccc3)c2)c(C(N)=O)cc1F [Example 30, 6-(2-aminoethylamino)-2-(3-(anilinocarbonyl)phenylamino)-5-fluoronicotinamide] | ≤ 1000 nM |
| COc1cc(Nc2nc(NC(C)C(N)=O)c(F)cc2C(N)=O)cc(OC)c1 (stereo not shown) [Example 33-1, 6-((2-amino-1-methyl-2-oxoethyl)amino)-2-(3,5-dimethoxyphenylamino)-5-fluoronicotinamide] | ≤ 1000 nM |
| CCNc1nc(Nc2cc(OC)cc(OC)c2)c(C(N)=O)cc1F [Example 15, 2-(3,5-dimethoxyphenylamino)-6-(ethylamino)-5-fluoronicotinamide] | ≤ 1000 nM |
